Results published in ChEMBL document CHEMBL1142186, “Multistep resistance selection and postantibiotic-effect studies of the antipneumococcal activity of LBM415 compared to other agents” (2007).
Converted amounts (≈) assume the structure as drawn.

Tests used:
Streptococcus pneumoniae [1] = experiment: Antibacterial activity against Streptococcus pneumoniae 2527 by macrodilution method; type: functional
Streptococcus pneumoniae [2] = experiment: Antibacterial activity against clarithromycin resistance selected Streptococcus pneumoniae 3676 after 10 antibiotic-free subcultures by macrodilution method; type: functional
Streptococcus pneumoniae [3] = experiment: Antibacterial activity against azithromycin resistance selected Streptococcus pneumoniae 3243 with L22 insertion 93SFRPRA94 mutation after 10 antibiotic-free subcultures by macrodilution method; type: functional
Streptococcus pneumoniae [4] = experiment: Antibacterial activity against Streptococcus pneumoniae 1077 by macrodilution method; type: functional
Streptococcus pneumoniae [5] = experiment: Antibacterial activity against levofloxacin resistance selected Streptococcus pneumoniae 3009 with GyrA S81Y and ParC S79Y mutation after 10 antibiotic-free subcultures by macrodilution method; type: functional
Streptococcus pneumoniae [6] = experiment: Antibacterial activity against moxifloxacin resistance selected Streptococcus pneumoniae 3665 with GyrA S81Y mutation after 10 antibiotic-free subcultures by macrodilution method; type: functional
Streptococcus pneumoniae [7] = experiment: Antibacterial activity against clarithromycin resistance selected Streptococcus pneumoniae 3009 after 10 antibiotic-free subcultures by macrodilution method; type: functional
Streptococcus pneumoniae [8] = experiment: Antibacterial activity against moxifloxacin resistance selected Streptococcus pneumoniae 1076 with ParC S79Y mutation after 10 antibiotic-free subcultures by macrodilution method; type: functional
Streptococcus pneumoniae [9] = experiment: Antibacterial activity against Streptococcus pneumoniae assessed as period of suppression of bacterial growth; type: functional
Streptococcus pneumoniae [10] = experiment: Antibacterial activity against azithromycin resistance selected Streptococcus pneumoniae 1077 with 23S rRNA A2058G mutation after 10 antibiotic-free subcultures by macrodilution method; type: functional
Streptococcus pneumoniae [11] = experiment: Antibacterial activity against moxifloxacin resistance selected Streptococcus pneumoniae 3243 after 10 antibiotic-free subcultures by macrodilution method; type: functional
Streptococcus pneumoniae [12] = experiment: Antibacterial activity against gatifloxacin resistance selected Streptococcus pneumoniae 1076 with ParC S79Y mutation after 10 antibiotic-free subcultures by macrodilution method; type: functional
Streptococcus pneumoniae [13] = experiment: Antibacterial activity against moxifloxacin resistance selected Streptococcus pneumoniae 3676 with GyrA E85G, GyrB S478I and ParC S79Y mutation after 10 antibiotic-free subcultures by macrodilution method; type: functional
Streptococcus pneumoniae [14] = experiment: Antibacterial activity against clarithromycin resistance selected Streptococcus pneumoniae 3665 after 10 antibiotic-free subcultures by macrodilution method; type: functional
Streptococcus pneumoniae [15] = experiment: Antibacterial activity against gatifloxacin resistance selected Streptococcus pneumoniae 3009 after 10 antibiotic-free subcultures by macrodilution method; type: functional
Streptococcus pneumoniae [16] = experiment: Antibacterial activity against moxifloxacin resistance selected Streptococcus pneumoniae 24 with GyrA S81Y, GyrB P413S and ParC S79F mutation after 10 antibiotic-free subcultures by macrodilution method; type: functional
Streptococcus pneumoniae [17] = experiment: Antibacterial activity against levofloxacin resistance selected Streptococcus pneumoniae 19 with GyrA S81Y and ParC D83Y mutation after 10 antibiotic-free subcultures by macrodilution method; type: functional
Streptococcus pneumoniae [18] = experiment: Antibacterial activity against azithromycin resistance selected Streptococcus pneumoniae 2527 after 10 antibiotic-free subcultures by macrodilution method; type: functional
Streptococcus pneumoniae [19] = experiment: Antibacterial activity against moxifloxacin resistance selected Streptococcus pneumoniae 3009 with GyrA S81F and ParC D83N mutation after 10 antibiotic-free subcultures by macrodilution method; type: functional
Streptococcus pneumoniae [20] = experiment: Antibacterial activity against azithromycin resistance selected Streptococcus pneumoniae 3243 with L22 insertion 93SFRPRA94 mutation after 33 passages by macrodilution method; type: functional
Streptococcus pneumoniae [21] = experiment: Antibacterial activity against gatifloxacin resistance selected Streptococcus pneumoniae 37 with GyrA S81Y, GyrB E474K and ParC S79Y mutation after 10 antibiotic-free subcultures by macrodilution method; type: functional
Streptococcus pneumoniae [22] = experiment: Antibacterial activity against azithromycin resistance selected Streptococcus pneumoniae 1077 with 23S rRNA A2058G mutation after 29 passages by macrodilution method; type: functional
Streptococcus pneumoniae [23] = experiment: Antibacterial activity against clarithromycin resistance selected Streptococcus pneumoniae 3243 with 23S rRNA A2059T mutation after 10 antibiotic-free subcultures by macrodilution method; type: functional
Streptococcus pneumoniae [24] = experiment: Antibacterial activity against moxifloxacin resistance selected Streptococcus pneumoniae 19 with GyrA S81F mutation after 10 antibiotic-free subcultures by macrodilution method; type: functional
Streptococcus pneumoniae [25] = experiment: Antibacterial activity against Streptococcus pneumoniae 3243 by macrodilution method; type: functional
Streptococcus pneumoniae [26] = experiment: Antibacterial activity against azithromycin resistance selected Streptococcus pneumoniae 2527 after 20 passages by macrodilution method; type: functional
Streptococcus pneumoniae [27] = experiment: Antibacterial activity against Streptococcus pneumoniae 3009 by macrodilution method; type: functional
Streptococcus pneumoniae [28] = experiment: Antibacterial activity against Streptococcus pneumoniae 1076 by macrodilution method; type: functional
Streptococcus pneumoniae [29] = experiment: Antibacterial activity against gatifloxacin resistance selected Streptococcus pneumoniae 3009 after 14 passages by macrodilution method; type: functional
Streptococcus pneumoniae [30] = experiment: Antibacterial activity against Streptococcus pneumoniae 37 by macrodilution method; type: functional
Streptococcus pneumoniae [31] = experiment: Antibacterial activity against gatifloxacin resistance selected Streptococcus pneumoniae 37 with GyrA S81Y, GyrB E474K and ParC S79Y mutation after 14 passages by macrodilution method; type: functional
Streptococcus pneumoniae [32] = experiment: Antibacterial activity against gatifloxacin resistance selected Streptococcus pneumoniae 1076 with ParC S79Y mutation after 20 passages by macrodilution method; type: functional
Streptococcus pneumoniae [33] = experiment: Antibacterial activity against moxifloxacin resistance selected Streptococcus pneumoniae 3676 with GyrA E85G, GyrB S478I and ParC S79Y mutation after 50 passages by macrodilution method; type: functional
Streptococcus pneumoniae [34] = experiment: Antibacterial activity against moxifloxacin resistance selected Streptococcus pneumoniae 1076 with ParC S79Y mutation after 35 passages by macrodilution method; type: functional
Streptococcus pneumoniae [35] = experiment: microbe, parasite or virus in culture
Streptococcus pneumoniae [36] = experiment: Antibacterial activity against moxifloxacin resistance selected Streptococcus pneumoniae 3665 with GyrA S81Y mutation after 38 passages by macrodilution method; type: functional
Streptococcus pneumoniae [37] = experiment: Antibacterial activity against moxifloxacin resistance selected Streptococcus pneumoniae 19 with GyrA S81F mutation after 32 passages by macrodilution method; type: functional
Streptococcus pneumoniae [38] = experiment: Antibacterial activity against moxifloxacin resistance selected Streptococcus pneumoniae 3009 with GyrA S81F and ParC D83N mutation after 19 passages by macrodilution method; type: functional
Streptococcus pneumoniae [39] = experiment: Antibacterial activity against moxifloxacin resistance selected Streptococcus pneumoniae 3243 after 20 passages by macrodilution method; type: functional

## CC[C@H]1OC(=O)[C@H](C)[C@@H](O[C@H]2C[C@@](C)(OC)[C@@H](O)[C@H](C)O2)[C@H](C)[C@@H](O[C@@H]2O[C@H](C)C[C@H](N(C)C)[C@H]2O)[C@](C)(O)C[C@@H](C)CN(C)[C@H](C)[C@@H](O)[C@]1(C)O [AZITHROMYCIN]
Streptococcus pneumoniae [1]
  MIC: 0.016 µg/mL (≈ 0.0214 µM)
Streptococcus pneumoniae [2]
  MIC: 16 µg/mL (≈ 21.4 µM)
Streptococcus pneumoniae [3]
  MIC: 0.5 µg/mL (≈ 0.668 µM)
Streptococcus pneumoniae [4]
  MIC: 0.03 µg/mL (≈ 0.0401 µM)
Streptococcus pneumoniae [5]
  MIC: 128 µg/mL (≈ 171 µM)
Streptococcus pneumoniae [6]
  MIC: 8 µg/mL (≈ 10.7 µM)
Streptococcus pneumoniae [7]
  MIC: 128 µg/mL (≈ 171 µM)
Streptococcus pneumoniae [8]
  MIC: > 128 µg/mL
Streptococcus pneumoniae [9]
  Post Antibiotic Effe: 3.1 h
Streptococcus pneumoniae [10]
  MIC: > 64 µg/mL
Streptococcus pneumoniae [11]
  MIC: 0.016 µg/mL (≈ 0.0214 µM)
Streptococcus pneumoniae [12]
  MIC: > 128 µg/mL
Streptococcus pneumoniae [13]
  MIC: 4 µg/mL (≈ 5.34 µM)
Streptococcus pneumoniae [14]
  MIC: 8 µg/mL (≈ 10.7 µM)
Streptococcus pneumoniae [15]
  MIC: > 128 µg/mL
Streptococcus pneumoniae [16]
  MIC: > 128 µg/mL
Streptococcus pneumoniae [17]
  MIC: > 128 µg/mL
Streptococcus pneumoniae [18]
  MIC: 4 µg/mL (≈ 5.34 µM)
Streptococcus pneumoniae [19]
  MIC: > 128 µg/mL
Streptococcus pneumoniae [20]
  MIC: 0.25 µg/mL (≈ 0.334 µM)
Streptococcus pneumoniae [21]
  MIC: > 128 µg/mL
Streptococcus pneumoniae [22]
  MIC: > 64 µg/mL
Streptococcus pneumoniae [23]
  MIC: 1 µg/mL (≈ 1.34 µM)
Streptococcus pneumoniae [24]
  MIC: > 128 µg/mL
Streptococcus pneumoniae [25]
  MIC: 0.03 µg/mL (≈ 0.0401 µM)
Streptococcus pneumoniae [26]
  MIC: 4 µg/mL (≈ 5.34 µM)

## COc1c(N2CCNC(C)C2)c(F)cc2c(=O)c(C(=O)O)cn(C3CC3)c12 (stereo not given) [GATIFLOXACIN]
Streptococcus pneumoniae [27]
  MIC: 1 µg/mL (≈ 2.66 µM)
Streptococcus pneumoniae [28]
  MIC: 2 µg/mL (≈ 5.33 µM)
Streptococcus pneumoniae [2]
  MIC: 0.5 µg/mL (≈ 1.33 µM)
Streptococcus pneumoniae [3]
  MIC: 0.25 µg/mL (≈ 0.666 µM)
Streptococcus pneumoniae [29]
  MIC: 16 µg/mL (≈ 42.6 µM)
Streptococcus pneumoniae [5]
  MIC: 8 µg/mL (≈ 21.3 µM)
Streptococcus pneumoniae [30]
  MIC: 1 µg/mL (≈ 2.66 µM)
Streptococcus pneumoniae [6]
  MIC: 0.5 µg/mL (≈ 1.33 µM)
Streptococcus pneumoniae [7]
  MIC: 0.25 µg/mL (≈ 0.666 µM)
Streptococcus pneumoniae [8]
  MIC: 8 µg/mL (≈ 21.3 µM)
Streptococcus pneumoniae [31]
  MIC: 16 µg/mL (≈ 42.6 µM)
Streptococcus pneumoniae [9]
  Post Antibiotic Effe: 1.7 h
Streptococcus pneumoniae [10]
  MIC: 8 µg/mL (≈ 21.3 µM)
Streptococcus pneumoniae [11]
  MIC: 1 µg/mL (≈ 2.66 µM)
Streptococcus pneumoniae [12]
  MIC: 8 µg/mL (≈ 21.3 µM)
Streptococcus pneumoniae [32]
  MIC: 16 µg/mL (≈ 42.6 µM)
Streptococcus pneumoniae [13]
  MIC: 2 µg/mL (≈ 5.33 µM)
Streptococcus pneumoniae [14]
  MIC: 0.25 µg/mL (≈ 0.666 µM)
Streptococcus pneumoniae [15]
  MIC: 8 µg/mL (≈ 21.3 µM)
Streptococcus pneumoniae [16]
  MIC: 4 µg/mL (≈ 10.7 µM)
Streptococcus pneumoniae [17]
  MIC: 4 µg/mL (≈ 10.7 µM)
Streptococcus pneumoniae [18]
  MIC: 8 µg/mL (≈ 21.3 µM)
Streptococcus pneumoniae [19]
  MIC: 2 µg/mL (≈ 5.33 µM)
Streptococcus pneumoniae [21]
  MIC: 16 µg/mL (≈ 42.6 µM)
Streptococcus pneumoniae [23]
  MIC: 0.25 µg/mL (≈ 0.666 µM)
Streptococcus pneumoniae [24]
  MIC: 0.5 µg/mL (≈ 1.33 µM)

## COc1c(N2C[C@@H]3CCCN[C@@H]3C2)c(F)cc2c(=O)c(C(=O)O)cn(C3CC3)c12 [MOXIFLOXACIN]
Streptococcus pneumoniae [33]
  MIC: 8 µg/mL (≈ 19.9 µM)
Streptococcus pneumoniae [28]
  MIC: 1 µg/mL (≈ 2.49 µM)
Streptococcus pneumoniae [5]
  MIC: 4 µg/mL (≈ 9.96 µM)
Streptococcus pneumoniae [9]
  Post Antibiotic Effe: 1.5 h
Streptococcus pneumoniae [34]
  MIC: 8 µg/mL (≈ 19.9 µM)
Streptococcus pneumoniae [35]
  MIC: 4 µg/mL (≈ 9.96 µM)
Streptococcus pneumoniae [36]
  MIC: 1 µg/mL (≈ 2.49 µM)
Streptococcus pneumoniae [37]
  MIC: 1 µg/mL (≈ 2.49 µM)
Streptococcus pneumoniae [13]
  MIC: 8 µg/mL (≈ 19.9 µM)
Streptococcus pneumoniae [38]
  MIC: 2 µg/mL (≈ 4.98 µM)
Streptococcus pneumoniae [21]
  MIC: 16 µg/mL (≈ 39.9 µM)
Streptococcus pneumoniae [39]
  MIC: 1 µg/mL (≈ 2.49 µM)
Streptococcus pneumoniae [24]
  MIC: 2 µg/mL (≈ 4.98 µM)
